Assay results published in patent US12012411B2, “Viral replication inhibitors” (Katholieke Universiteit Leuven, priority 2011, dated 2024).

Legend:
DENV-2 NGC [1] = assay: Antiviral activity against DENV-2 NGC in Vero-B cells (viral RNA load by RT-qPCR); assay type: cell-based, Dengue virus; details: Dengue virus, DENV2, Vero B, DENV-2 in Vero-B cells; inhibition of viral RNA replication by 50% (Table 3)
[2] = test system: DENV-1 Djibouti strain D1/H/IMTSSA/98/606; assay: Antiviral activity against DENV-1 in Vero-B cells (viral RNA load by RT-qPCR); assay type: cell-based, Dengue virus; details: Dengue virus, DENV1, Vero B
[3] = test system: DENV-3 strain H87 prototype; assay: Antiviral activity against DENV-3 in Vero-B cells (viral RNA load by RT-qPCR); assay type: cell-based, Dengue virus; details: Dengue virus, DENV3, Vero B
[4] = test system: DENV-4 strain Dak HD 34 460; assay: Antiviral activity against DENV-4 in Vero-B cells (viral RNA load by RT-qPCR); assay type: cell-based, Dengue virus; details: Dengue virus, DENV4, Vero B
[5] = test system: uninfected quiescent Vero-B cells; assay: Cytotoxic assay in uninfected quiescent Vero-B cells (MTS/PMS); details: 4 days (Table 3)
DENV-2 NGC [6] = assay: Antiviral activity against DENV-2 NGC in A549 cells (viral RNA load by RT-qPCR); assay type: cell-based; details: Dengue virus, DENV2; DENV-2 in A549 cells (Table 6)
[7] = Cytotoxicity in A549 cells (MTS/PMS); assay type: cell-based; details: human; A549 cells (Table 6)
Protocol: A similar protocol was used to assess cytotoxicity in A549 cells with the difference that cells were seeded at 2×10^4 cells/well.

DENV-2 strain D2Y98P = assay: Dengue mortality model in AG129 mice; assay type: in vivo; details: 60 mg/kg/day, sc, twice daily, 17 consecutive days; DENV-2 D2Y98P infected AG129 mice; p: 0.0017; FIG. 1
in vitro = details: African green monkey, uninfected quiescent Vero-B cells

Structure (SMILES) | EC50 (DENV-2 NGC [1]) [nM] | EC50 [2] [nM] | EC50 [3] [nM] | EC50 [4] [nM] | CC50 [5] [nM] | EC50 (DENV-2 NGC [6]) [nM] | CC50 at 4 days [7] [nM] | delay in virus-induced morbidity (day of euthanasia) (DENV-2 strain D2Y98P) | CC50 at 4 days (in vitro) [nM]
COc1cc(NC(C(=O)c2c[nH]c3ccccc23)c2ccc(F)cc2)cc(OC)c1 (centres unmarked) [CPD-235] | 4 | 90 | 270 | 3020 | 13000 | – | – | – | –
COc1cc(NC(C(=O)c2c[nH]c3ccccc23)c2cccnc2)cc(OC)c1 (centres unmarked) [CPD-236] | 20 | 170 | 310 | 2450 | 69000 | 19 | 65000 | – | –
COc1cncc(NC(C(=O)c2c[nH]c3cc(F)ccc23)c2ccc(OC)nc2)c1 (centres unmarked) [CPD-242] | 40 | 400 | 570 | 7870 | – | 10 | 47000 | highly significant delay | 59000
CCOc1cc(NC(C(=O)c2c[nH]c3ccccc23)c2ccccc2)cc(OC)c1 (centres unmarked) [CPD-254] | 20 | 670 | 800 | 1150 | 13000 | – | – | – | –
COc1cc(NC(C(=O)c2c[nH]c3ccccc23)c2ccccc2)cc(OCCO)c1 (centres unmarked) [CPD-255] | 40 | 750 | 1660 | 3360 | – | 29 | 59000 | – | 63000
COc1cc(CO)cc(NC(C(=O)c2c[nH]c3ccccc23)c2ccccc2)c1 (centres unmarked) [CPD-262] | 60 | 2330 | 6730 | 8490 | 71000 | – | – | – | –
COc1cc(NC(C(=O)c2c[nH]c3ccccc23)c2cc3ccccn3n2)cc(OC)c1 (centres unmarked) [CPD-293] | 1 | 60 | 40 | 1150 | – | 3 | > 117000 | – | 65000
COc1cc(NC(C(=O)c2c[nH]c3ccccc23)c2cnc(OC)cn2)cc(OC)c1 (centres unmarked) [CPD-294] | 20 | 230 | 670 | 7210 | – | 15 | 61000 | – | 41000
COc1cc(CO)cc(NC(C(=O)c2c[nH]c3ccccc23)c2ccc(C)nc2)c1 (centres unmarked) [CPD-320] | 70 | 960 | 1170 | 9440 | – | 6 | > 124000 | – | > 124000
COc1cccc(NC(C(=O)c2c[nH]c3ccccc23)c2nc3ccccc3o2)c1 (centres unmarked) [CPD-328] | 10 | 200 | 130 | 2840 | 13000 | 6 | 12000 | – | –
COc1cc(CO)cc(NC(C(=O)c2c[nH]c3ccc(F)cc23)c2cccnc2)c1 (centres unmarked) [CPD-334] | 70 | 1290 | 810 | 16800 | – | 24 | 85000 | – | 122000
COc1cc(NC(C(=O)c2c[nH]c3ccccc23)c2cc3ccccn3n2)cc(OCCO)c1 (centres unmarked) [CPD-336] | 10 | 260 | 350 | 5770 | – | 5 | > 123000 | – | > 123000
COc1cc(NC(C(=O)c2cn(C)c3ccccc23)c2ccccc2)cc(OC)c1 (centres unmarked) [CPD-338] | 10 | 350 | 250 | 1820 | – | 26 | > 124000 | – | > 124000
COc1cc(NC(C(=O)c2nn(C)c3ccccc23)c2ccc(F)cc2)cc(OC)c1 (centres unmarked) [CPD-340] | 20 | 180 | 240 | 6390 | – | 27 | > 119000 | – | > 119000
COc1cc(NC(C(=O)c2c[nH]c3ccccc23)c2ccc(C)nc2)cc(OC)c1 (centres unmarked) [CPD-346] | 10 | – | 40 | 1270 | – | 8 | 60000 | – | 54000
COc1cc(NC(C(=O)c2c[nH]c3ccccc23)c2ccc(F)cc2)cc(OCCO)c1 (centres unmarked) [CPD-350] | 10 | – | 280 | 3110 | 46000 | 8 | 63000 | – | –
COc1cc(NC(C(=O)c2cn(C)c3ccccc23)c2cccnc2)cc(OC)c1 (centres unmarked) [CPD-360] | 40 | – | – | 5780 | – | 27 | > 124000 | – | > 124000
